In ChEMBL document CHEMBL3885881, “DrugMatrix”:

Species: Rattus norvegicus
Test: DrugMatrix - Regimen: Daily Repeat
Format: toxicity, organism-based, Sprague-Dawley
Parameters: regimen Daily Repeat, gender Male, age 6-8 weeks
Conditions: in vivo, po, route oral GAVAGE, […]; for ABSOLUTE BASOPHIL / ABSOLUTE EOSINOPHIL / ABSOLUTE LYMPHOCYTE / ABSOLUTE MONOCYTE / ABSOLUTE SEGMENTED NEUTROPHIL / BASOPHIL / EOSINOPHIL / ERYTHROCYTE COUNT / HEMATOCRIT / HEMOGLOBIN / LEUKOCYTE COUNT / LYMPHOCYTE / MEAN CORPUSCULAR HEMOGLOBIN / MEAN CORPUSCULAR HEMOGLOBIN CONCENTRATION / MEAN CORPUSCULAR VOLUME / MONOCYTE / NEUTROPHIL / NUCLEATED RED BLOOD CELLS / PLATELET COUNT: tissue Blood; for ALANINE AMINOTRANSFERASE / ALBUMIN / ALKALINE PHOSPHATASE / ASPARTATE AMINOTRANSFERASE / BLOOD UREA NITROGEN / CARBON DIOXIDE / CHLORIDE / CHOLESTEROL / CREATINE PHOSPHOKINASE / CREATININE / GLUCOSE / LACTATE DEHYDROGENASE / LIPASE / PHOSPHORUS / POTASSIUM / SODIUM / TOTAL BILIRUBIN / TOTAL PROTEIN / URIC ACID: tissue Plasma
[1] = 0.05 mg/kg, 120 h, dose level Low, time 5 day
[2] = 7 mg/kg, 72 h, dose level High, time 3 day
[3] = 7 mg/kg, 120 h, dose level High, time 5 day

In the case of COCc1c(C(C)C)nc(C(C)C)c(/C=C/[C@@H](O)C[C@@H](O)CC(=O)O)c1-c1ccc(F)cc1 [CERIVASTATIN], the “ABSOLUTE BASOPHIL” value [1] is reported as 0 CELLS/uL, the “ABSOLUTE EOSINOPHIL” value [1] is reported as 39 CELLS/uL and the “ABSOLUTE LYMPHOCYTE” value [1] is reported as 10187.67 CELLS/uL. The “ABSOLUTE MONOCYTE” value [1] was 164.67 CELLS/uL, the “ABSOLUTE SEGMENTED NEUTROPHIL” value [1] was 875.33 CELLS/uL and the BASOPHIL [1] was 0%. The EOSINOPHIL [1] was 0.33%, the “ERYTHROCYTE COUNT” value [1] was 5.9 x10E6/uL and the HEMATOCRIT [1] was 36.4%. The HEMOGLOBIN [1] was 13.87 G/DL, the “LEUKOCYTE COUNT” value [1] was 11.27 x10E3/uL and the LYMPHOCYTE [1] was 90.33%. For the same compound, the “MEAN CORPUSCULAR HEMOGLOBIN” value [1] was 23.53 pg, the “MEAN CORPUSCULAR HEMOGLOBIN CONCENTRATION” value [1] was 38.1 G/DL and the “MEAN CORPUSCULAR VOLUME” value [1] was 61.73 fL. For the same compound, the MONOCYTE [1] was 1.33%, the NEUTROPHIL [1] was 8% and the “NUCLEATED RED BLOOD CELLS” value [1] was 0 /100WBC. For the same compound, the “PLATELET COUNT” value [1] was 1545 x10E3/uL, the “ALANINE AMINOTRANSFERASE” value [1] was 66.33 u/L and the ALBUMIN [1] was 4.1 G/DL. The “ALKALINE PHOSPHATASE” value [1] was 440.67 u/L, the “ASPARTATE AMINOTRANSFERASE” value [1] was 90 u/L and the “BLOOD UREA NITROGEN” value [1] was 14.67 mg/dL. The “CARBON DIOXIDE” value [1] was 32 mmol/L, the CHLORIDE [1] was 101 MEQ/L and the CHOLESTEROL [1] was 63.67 mg/dL. The “CREATINE PHOSPHOKINASE” value [1] was 453 u/L, the CREATININE [1] was 0.19 mg/dL and the GLUCOSE [1] was 143.33 mg/dL. The “LACTATE DEHYDROGENASE” value [1] was 112.33 u/L, the LIPASE [1] was 11.33 u/L and the PHOSPHORUS [1] was 10.8 mg/dL. The POTASSIUM [1] was 6.11 MEQ/L, the SODIUM [1] was 144.4 MEQ/L and the “TOTAL BILIRUBIN” value [1] was 0.17 mg/dL. For the same compound, the “TOTAL PROTEIN” value [1] was 5.87 G/DL, the “URIC ACID” value [1] was 1.37 mg/dL and the “ABSOLUTE BASOPHIL” value [2] was 0 CELLS/uL. For the same compound, the “ABSOLUTE EOSINOPHIL” value [2] was 0 CELLS/uL, the “ABSOLUTE LYMPHOCYTE” value [2] was 7320 CELLS/uL and the “ABSOLUTE MONOCYTE” value [2] was 110 CELLS/uL. For the same compound, the “ABSOLUTE SEGMENTED NEUTROPHIL” value [2] was 1470 CELLS/uL, the BASOPHIL [2] was 0% and the EOSINOPHIL [2] was 0%. The “ERYTHROCYTE COUNT” value [2] was 6.07 x10E6/uL, the HEMATOCRIT [2] was 37.7% and the HEMOGLOBIN [2] was 14.3 G/DL. The “LEUKOCYTE COUNT” value [2] was 8.9 x10E3/uL, the LYMPHOCYTE [2] was 81.67% and the “MEAN CORPUSCULAR HEMOGLOBIN” value [2] was 23.6 pg. For the same compound, the “MEAN CORPUSCULAR HEMOGLOBIN CONCENTRATION” value [2] was 37.93 G/DL, the “MEAN CORPUSCULAR VOLUME” value [2] was 62.2 fL and the MONOCYTE [2] was 1.33%. The NEUTROPHIL [2] was 17%, the “NUCLEATED RED BLOOD CELLS” value [2] was 0 /100WBC and the “PLATELET COUNT” value [2] was 1276.33 x10E3/uL. For the same compound, the “ALANINE AMINOTRANSFERASE” value [2] was 401.33 u/L, the ALBUMIN [2] was 4.23 G/DL and the “ALKALINE PHOSPHATASE” value [2] was 440.67 u/L. For the same compound, the “ASPARTATE AMINOTRANSFERASE” value [2] was 730.67 u/L, the “BLOOD UREA NITROGEN” value [2] was 14.33 mg/dL and the “CARBON DIOXIDE” value [2] was 34.67 mmol/L. The CHLORIDE [2] was 99.33 MEQ/L, the CHOLESTEROL [2] was 65.33 mg/dL and the “CREATINE PHOSPHOKINASE” value [2] was 536.67 u/L. The CREATININE [2] was 0.21 mg/dL, the GLUCOSE [2] was 138.33 mg/dL and the “LACTATE DEHYDROGENASE” value [2] was 823 u/L. For the same compound, the LIPASE [2] was 11.33 u/L, the PHOSPHORUS [2] was 10.17 mg/dL and the POTASSIUM [2] was 6.19 MEQ/L. For the same compound, the SODIUM [2] was 145.1 MEQ/L, the “TOTAL BILIRUBIN” value [2] was 0.13 mg/dL and the “TOTAL PROTEIN” value [2] was 5.9 G/DL. The “URIC ACID” value [2] was 1.17 mg/dL, the “ABSOLUTE BASOPHIL” value [3] was 0 CELLS/uL and the “ABSOLUTE EOSINOPHIL” value [3] was 0 CELLS/uL. For the same compound, the “ABSOLUTE LYMPHOCYTE” value [3] was 5700.67 CELLS/uL, the “ABSOLUTE MONOCYTE” value [3] was 483.33 CELLS/uL and the “ABSOLUTE SEGMENTED NEUTROPHIL” value [3] was 1949.33 CELLS/uL. The BASOPHIL [3] was 0%, the EOSINOPHIL [3] was 0% and the “ERYTHROCYTE COUNT” value [3] was 6.32 x10E6/uL. The HEMATOCRIT [3] was 41%, the HEMOGLOBIN [3] was 15.23 G/DL and the “LEUKOCYTE COUNT” value [3] was 8.13 x10E3/uL. For the same compound, the LYMPHOCYTE [3] was 68.33%, the “MEAN CORPUSCULAR HEMOGLOBIN” value [3] was 24.1 pg and the “MEAN CORPUSCULAR HEMOGLOBIN CONCENTRATION” value [3] was 37.17 G/DL. The “MEAN CORPUSCULAR VOLUME” value [3] was 64.93 fL, the MONOCYTE [3] was 5.67% and the NEUTROPHIL [3] was 26%. For the same compound, the “NUCLEATED RED BLOOD CELLS” value [3] was 0 /100WBC, the “PLATELET COUNT” value [3] was 1312.67 x10E3/uL and the “ALANINE AMINOTRANSFERASE” value [3] was 247.33 u/L. For the same compound, the ALBUMIN [3] was 3.9 G/DL, the “ALKALINE PHOSPHATASE” value [3] was 548.33 u/L and the “ASPARTATE AMINOTRANSFERASE” value [3] was 624.67 u/L. For the same compound, the “BLOOD UREA NITROGEN” value [3] was 19 mg/dL, the “CARBON DIOXIDE” value [3] was 35.67 mmol/L and the CHLORIDE [3] was 93 MEQ/L. For the same compound, the CHOLESTEROL [3] was 85 mg/dL, the “CREATINE PHOSPHOKINASE” value [3] was 915.67 u/L and the CREATININE [3] was 0.27 mg/dL. The GLUCOSE [3] was 124.33 mg/dL, the “LACTATE DEHYDROGENASE” value [3] was 295 u/L and the LIPASE [3] was 13 u/L. It also gave a PHOSPHORUS [3] of 8 mg/dL, a POTASSIUM [3] of 5.51 MEQ/L and an SODIUM [3] of 142.73 MEQ/L. The “TOTAL BILIRUBIN” value [3] was 0.13 mg/dL, the “TOTAL PROTEIN” value [3] was 6.1 G/DL and the “URIC ACID” value [3] was 0.87 mg/dL.
